In PubChem BioAssay (NCI):
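Test compounds were applied to cells in 96-well plates for 48 hours at 5 doses. Abbreviation: GI50, concentration required for 50% inhibition of growth. The concentration for full growth arrest is given as TGI.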

Columns and labels:
Assay in all cases: NCI anticancer screen, dose series, 48 h
[1] = tested on: RPMI-8226 leukemia
[2] = tested on: M14 melanoma
[3] = tested on: SNB-19 CNS
[4] = tested on: NCI-H522 lung
[5] = tested on: SK-MEL-5 melanoma
[6] = tested on: BT-549 breast
[7] = tested on: SR leukemia
[8] = tested on: RXF 393 renal
[9] = tested on: UO-31 renal
[10] = tested on: OVCAR-3 ovarian
[11] = tested on: MALME-3M melanoma
[12] = tested on: HCT-116 colon
[13] = tested on: HOP-92 NSCLC
[14] = tested on: SF-539 CNS
[15] = tested on: MDA-MB-435
[16] = tested on: NCI-H23 lung
[17] = tested on: OVCAR-8 ovarian
[18] = tested on: LOX IMVI melanoma
[19] = tested on: MDA-MB-231 breast
[20] = tested on: UACC-257 melanoma
[21] = tested on: HOP-62 NSCLC
[22] = tested on: TK-10 renal
[23] = tested on: HT29 colon
[24] = tested on: SN12C renal
[25] = tested on: SF-295 CNS
[26] = tested on: A549 NSCLC
[27] = tested on: SK-MEL-28 melanoma
[28] = tested on: NCI/ADR-RES ovarian
[29] = tested on: A498 renal
[30] = tested on: OVCAR-4 ovarian
[31] = tested on: 786-0 renal
[32] = tested on: CCRF-CEM leukemia
[33] = tested on: MOLT-4 leukemia
[34] = tested on: MCF7 breast
[35] = tested on: SK-MEL-2 melanoma
[36] = tested on: T-47D breast
[37] = tested on: SF-268 CNS
[38] = tested on: HCC-2998 colon
[39] = tested on: KM12 colon
[40] = tested on: EKVX NSCLC
[41] = tested on: DU-145 prostate
[42] = tested on: SK-OV-3 ovarian
[43] = tested on: ACHN renal
[44] = tested on: SW-620 colon
[45] = tested on: PC-3 prostate
[46] = tested on: HL-60(TB) leukemia
[47] = tested on: UACC-62 melanoma
[48] = tested on: K-562 leukemia
[49] = tested on: OVCAR-5 ovarian
[50] = tested on: NCI-H226 lung
[51] = tested on: U251 CNS
[52] = tested on: NCI-H460 lung
[53] = tested on: HCT-15 colon
[54] = tested on: SNB-75 CNS
[55] = tested on: HS 578T breast
[56] = tested on: COLO 205 colon

## COc1ccc(/C=C/C(=O)c2ccc(NC(=O)CSc3nnc(-c4ccc(OC)c(OC)c4)n3-c3ccccc3)cc2)cc1
[1]
  GI50: 1.72 µM
  TGI: 4.41 µM
[2]
  GI50: 1.8 µM
  TGI: 3.9 µM
[3]
  GI50: 3.5 µM
  TGI: 16.9 µM
[4]
  GI50: 1.48 µM
  TGI: 3.17 µM
[5]
  GI50: 1.81 µM
  TGI: 4.12 µM
[6]
  GI50: 1.6 µM
  TGI: 3.49 µM
[7]
  GI50: 0.724 µM
  TGI: 2.78 µM
[8]
  GI50: 1.66 µM
  TGI: 3.35 µM
[9]
  GI50: 1.48 µM
  TGI: 3.84 µM
[10]
  GI50: 1.72 µM
  TGI: 3.26 µM
[11]
  GI50: 1.75 µM
  TGI: 3.49 µM
[12]
  GI50: 1.17 µM
  TGI: 2.66 µM
[13]
  GI50: 1.56 µM
  TGI: 3.45 µM
[14]
  GI50: 1.8 µM
  TGI: 3.31 µM
[15]
  GI50: 1.91 µM
  TGI: 4.13 µM
[16]
  GI50: 1.8 µM
  TGI: 4.01 µM
[17]
  GI50: 3.09 µM
  TGI: 14.1 µM
[18]
  GI50: 1.46 µM
  TGI: 2.99 µM
[19]
  GI50: 1.73 µM
  TGI: 3.65 µM
[20]
  GI50: 12 µM
  TGI: 24.4 µM
[21]
  GI50: 4.36 µM
  TGI: 19.4 µM
[22]
  GI50: 14.6 µM
  TGI: 28.1 µM
[23]
  GI50: 1.86 µM
  TGI: 3.58 µM
[24]
  GI50: 2.25 µM
  TGI: 7.09 µM
[25]
  GI50: 12.2 µM
  TGI: 25.9 µM
[26]
  GI50: 14.9 µM
  TGI: 31.7 µM
[27]
  GI50: 5.78 µM
  TGI: 19.2 µM
[28]
  GI50: 2.66 µM
  TGI: > 100 µM
[29]
  GI50: 14.7 µM
  TGI: 28 µM
[30]
  GI50: 1.96 µM
  TGI: 4.75 µM
[31]
  GI50: 1.78 µM
  TGI: 3.66 µM
[32]
  GI50: 1.85 µM
  TGI: 5.36 µM
[33]
  GI50: 2.26 µM
  TGI: 9.14 µM
[34]
  GI50: 1.41 µM
  TGI: 5.14 µM
[35]
  GI50: 5.03 µM
  TGI: 23.3 µM
[36]
  GI50: 2.54 µM
  TGI: 12.4 µM
[37]
  GI50: 1.89 µM
  TGI: 4.88 µM
[38]
  GI50: 2.97 µM
  TGI: 10.1 µM
[39]
  GI50: 2.24 µM
  TGI: 5.54 µM
[40]
  GI50: 3.05 µM
  TGI: 14.6 µM
[41]
  GI50: 3.21 µM
  TGI: 10.8 µM
[42]
  GI50: 13.1 µM
  TGI: 26.3 µM
[43]
  GI50: 2.38 µM
  TGI: 6.1 µM
[44]
  GI50: 1.96 µM
  TGI: 4.07 µM
[45]
  GI50: 3.09 µM
  TGI: 13.8 µM
[46]
  GI50: 2.57 µM
  TGI: 11.8 µM
[47]
  GI50: 2.26 µM
  TGI: 6.59 µM
[48]
  GI50: 3.02 µM
  TGI: 10.8 µM
[49]
  GI50: 14 µM
  TGI: 28.3 µM
[50]
  GI50: 3.92 µM
  TGI: 24.3 µM
[51]
  GI50: 1.75 µM
  TGI: 3.51 µM
[52]
  GI50: 5.05 µM
  TGI: 18 µM
[53]
  GI50: 1.8 µM
  TGI: 4.27 µM
[54]
  GI50: 2.6 µM
  TGI: 14.9 µM
[55]
  GI50: 7.68 µM
  TGI: 54.3 µM
[56]
  GI50: 2.1 µM
  TGI: 4.56 µM
